Reference: patent US20090209633A1, “Treatment of Pain With Resiniferatoxin and Related Analogs” (priority 2006, published 2009)
“Also recorded” adds a separate entry of the source. Where two headings read alike, the source gives them in different places.

What was measured:
native TRPV1 [1] = target: T1, native TRPV1 (Rattus norvegicus, UniProt O35433); assay: Whole-cell currents in cultured embryonic DRG neurons (patch clamp); assay type: cell-based; conditions: for activation phase of whole-cell current: −60 mV; for reversibility of induced current: RTX 10 and 100 nM, washout >15 min
T1 construct: RTX-induced membrane currents on native TRPV1 in embryonic DRG neurons grown in culture; endogenous in cells; host or cells: primary rat E18 DRG neurons
T1 sequence (O35433 whole entry): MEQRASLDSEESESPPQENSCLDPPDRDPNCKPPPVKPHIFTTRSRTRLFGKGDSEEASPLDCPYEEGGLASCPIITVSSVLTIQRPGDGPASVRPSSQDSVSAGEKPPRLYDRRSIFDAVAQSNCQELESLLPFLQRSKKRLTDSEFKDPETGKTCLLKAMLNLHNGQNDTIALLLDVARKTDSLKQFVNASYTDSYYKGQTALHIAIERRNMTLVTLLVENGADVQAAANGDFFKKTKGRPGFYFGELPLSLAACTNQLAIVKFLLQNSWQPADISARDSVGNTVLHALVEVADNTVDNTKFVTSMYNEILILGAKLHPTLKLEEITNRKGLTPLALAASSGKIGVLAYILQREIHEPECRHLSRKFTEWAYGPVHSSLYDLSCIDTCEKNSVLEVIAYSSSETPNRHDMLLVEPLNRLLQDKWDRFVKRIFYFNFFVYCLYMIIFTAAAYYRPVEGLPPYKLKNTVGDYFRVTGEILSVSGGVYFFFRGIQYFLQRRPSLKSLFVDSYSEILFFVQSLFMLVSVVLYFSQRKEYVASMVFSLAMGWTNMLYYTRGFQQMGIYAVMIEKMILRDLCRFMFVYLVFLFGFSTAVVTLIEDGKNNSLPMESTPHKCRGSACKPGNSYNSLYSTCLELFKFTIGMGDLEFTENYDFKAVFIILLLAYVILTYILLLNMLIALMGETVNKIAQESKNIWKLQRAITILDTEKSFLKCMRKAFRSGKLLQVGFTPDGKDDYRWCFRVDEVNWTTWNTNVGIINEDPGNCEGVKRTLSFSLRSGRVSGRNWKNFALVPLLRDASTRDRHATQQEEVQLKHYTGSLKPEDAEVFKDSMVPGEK
Procedure: Electrophysiology. Whole-cell and single-channel currents were recorded from rat DRG neurons in culture and from Xenopus laevis oocytes injected with rat TRPV1 cRNA. Animals were cared for according to the standards of the National Institutes of Health (NIH). All animal use protocols were approved by Southern Illinois University School of Medicine Animal Care Committee.
Primary DRG neuronal cultures were prepared from embryonic day 18 (E18) rat embryos. Adult pregnant rats were killed with an overdose of isoflurane. DRG were dissected and the cells were dissociated by triturating with a fire-polished glass pipette. Cells were cultured in Neurobasal medium (Life Technologies, Buffalo, N.Y., USA), supplemented with 10% fetal bovine serum (FBS), and grown on poly-D-lysine-coated glass coverslips. Cells were used from 5 to 15 days after plating. Small diameter (<30 μm) rounded neurons were selected for patch-clamp experiments. […] The Giga-seal patch-clamp technique was used to record whole-cell currents. For perforated-patch recordings, the bath solution contained (mM): sodium gluconate 140, KCl 2.5, Hepes 10, MgCl2 1 and ethylene glycol bis(2-aminoethyl ether)-N,N,N′N′-tetraacetic acid (EGTA) 1.5 (pH adjusted to 7.35 with NaOH), and the pipette solution contained (mM): sodium gluconate 130, NaCl 10, KCl 2.5, Hepes 10, MgCl2 1, EGTA 1.5 and 240 μg/ml^−1 amphotericin B (pH adjusted to 7.35 with NaOH). For current-clamp experiments the pipette solution contained (mM): potassium gluconate 130, NaCl 10, MgCl2 1, EGTA 0.2, K2ATP 1 and Hepes 10; pH adjusted to 7.35 with NaOH. Extracellular solution for current- and voltage-clamp experiments contained (mM): NaCl 140, KCl 4, MgCl2 1 and Hepes 10; pH adjusted to 7.35 with NaOH. Currents were recorded using a WPC 100 patch-clamp amplifier (E.S.F. Electronic, Goettingan, Germany). Data were filtered at 10 kHz, digitized (VR-10B, Instrutech Corp., Great Neck, N.Y., USA) and stored on videotapes or directly stored in the computer using a LabView interface. For analysis of whole-cell currents, data were filtered at 1 kHz (−3 db frequency with an 8-pole low-pass Bessel filter, Warner Instruments, LPF-8) and digitized at 2 kHz.
This example tests the activation of whole-cell current in DRG neurons by RTX. We determined the properties of RTX-induced membrane currents on native TRPV1 in embryonic DRG neurons grown in culture. […] Protons were not used to elicit currents because of the presence of acid-sensitive ion channels in these neurons.

TRPV1 [2] = assay type: in vivo
Source text: Low concentrations of RTX (0.19 micrograms/kg) were introduced intrathecally.
FIG. 14 provides photographs of TRPV1 levels in paw skin with and without intrathecal RTX administration.

[3] = system: TRPV1-containing central terminals; assay: Paw withdrawal latency and nocifensive behavior after intrathecal RTX administration; assay type: in vivo
Source text: FIG. 14 provides photographs of TRPV1 levels in paw skin with and without intrathecal RTX administration. […] However, because PWL is a test for acute pain sensation, it is inappropriate for studying TRPV1 involvement, because TRPV1 mediates inflammatory pain.

vanilloid receptors [4] = target: T2, vanilloid receptors (Rattus norvegicus, UniProt O35433); conditions: Acs et al. 1995; cited from earlier work
T2 sequence (O35433 whole entry): as above

TRPV1 [5] = target: TRPV1 (Rattus norvegicus, UniProt O35433); conditions: Caterina et al. 1997, cited from earlier work
TRPV1 (Rattus norvegicus, UniProt O35433), sequence (O35433 whole entry): as above

vanilloid receptors [6] = target: T2, vanilloid receptors; conditions: Acs et al. 1995; read-out: Kd, ability to induce Ca2+ uptake; cited from earlier work
native TRPV1 [7] = target: T1, native TRPV1; conditions: capsaicin 1 μM, cell-attached, Premkumar et al. 2002, cited from earlier work
[8] = RTX 0.19 micrograms/kg intrathecal

Row | Compound | activation phase of whole-cell current (native TRPV1 [1]; RTX 10 nM) | activation phase of whole-cell current (native TRPV1 [1]; RTX 100 nM) | reversibility of induced current (native TRPV1 [1]; capsaicin 1 μM) | TRPV1 levels in DRG (TRPV1 [2]; [8]) | TRPV1 levels in spinal cord dorsal horn (DH) (TRPV1 [2]; [8]) | effect on cell body or peripheral terminals (paw skin TRPV1) (TRPV1 [2]; RTX intrathecal) | nocifensive behavior to intraplantar injection of capsaicin [3] | paw withdrawal latency (PWL) to radiant heat [3] | duration of guarding ([3]; intraplantar capsaicin) | number of guarding ([3]; intraplantar capsaicin) | fold more potent for binding as compared to Ca2+ uptake (vanilloid receptors [4]) | fold more potent than capsaicin to activate TRPV1 current (TRPV1 [5]) | EC50 (TRPV1 [5]; read-out: EC50 to activate TRPV1 current) | Ca2+ uptake potency (half-maximal concentration) (vanilloid receptors [6]) | maximal Po (native TRPV1 [7]; +60 mV) | maximal Po (native TRPV1 [7]; −60 mV) | activation phase of whole-cell current (native TRPV1 [1]; capsaicin 1 μM) | neurons responding to capsaicin (native TRPV1 [1]; small diameter cultured DRG neurons)
1 | C=C(C)[C@]12C[C@@H](C)[C@@]34O[C@](Cc5ccccc5)(O[C@@H]1[C@@H]3C=C(COC(=O)Cc1ccc(O)c(OC)c1)C[C@]1(O)C(=O)C(C)=C[C@@H]41)O2 [RTX, resiniferatoxin] | 69 ± 10.9 s | 29.35 ± 2.65 s | could not be reversed readily | maintenance; also recorded: remained constant | reduction; also recorded: significantly reduced | without affecting the cell body or peripheral terminals | dramatic decrease; also recorded: significantly reduced | no change; also recorded: not affected | decreased significantly | decreased significantly | 25 fold | 20 fold | 39 nM | 1 nM |  |  |  | 
2 | COc1cc(CNC(=O)CCCC/C=C/C(C)C)ccc1O [capsaicin] |  |  | readily reversible |  |  |  |  |  |  |  |  |  |  |  | 0.4±0.08 | 0.8±0.04 | 7.14 ± 0.42 s | More than 70%
